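All cell lines were grown in 96-well plates and treated with compound for 48 hours. Here, GI50 denotes the concentration required for 50% inhibition of growth. Definition used: TGI = concentration required for complete inhibition of growth.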
Columns and labels:
Assay in all cases: NCI anticancer screen, dose series, 48 h
[1] = test system: SNB-19 CNS
[2] = test system: SK-MEL-28 melanoma
[3] = test system: NCI-H522 lung
[4] = test system: HCC-2998 colon
[5] = test system: SK-MEL-2 melanoma
[6] = test system: CCRF-CEM leukemia
[7] = test system: SF-295 CNS
[8] = test system: MALME-3M melanoma
[9] = test system: NCI-H23 lung
[10] = test system: K-562 leukemia
[11] = test system: RPMI-8226 leukemia
[12] = test system: OVCAR-5 ovarian
[13] = test system: TK-10 renal
[14] = test system: SN12C renal
[15] = test system: UACC-62 melanoma
[16] = test system: COLO 205 colon
[17] = test system: HOP-62 NSCLC
[18] = test system: EKVX NSCLC
[19] = test system: OVCAR-4 ovarian
[20] = test system: NCI-H460 lung
[21] = test system: LOX IMVI melanoma
[22] = test system: UACC-257 melanoma
[23] = test system: SK-OV-3 ovarian
[24] = test system: OVCAR-3 ovarian
[25] = test system: IGROV1 ovarian
[26] = test system: 786-0 renal
[27] = test system: HCT-15 colon
[28] = test system: SF-268 CNS
[29] = test system: SNB-75 CNS
[30] = test system: HT29 colon
[31] = test system: M14 melanoma
[32] = test system: KM12 colon
[33] = test system: SNB-78 CNS
[34] = test system: A498 renal
[35] = test system: A549 NSCLC
[36] = test system: HCT-116 colon
[37] = test system: LXFL 529 NSCLC
[38] = test system: OVCAR-8 ovarian
[39] = test system: KM20L2 colon
[40] = test system: UO-31 renal
[41] = test system: U251 CNS
[42] = test system: ACHN renal
[43] = test system: SK-MEL-5 melanoma
[44] = test system: HOP-92 NSCLC
[45] = test system: SW-620 colon
[46] = test system: MOLT-4 leukemia
[47] = test system: SF-539 CNS
[48] = test system: DLD-1 colon
[49] = test system: MDA-N
[50] = test system: CAKI-1 renal
[51] = test system: HL-60(TB) leukemia
[52] = test system: SR leukemia
[53] = test system: MCF7 breast
[54] = test system: NCI-H226 lung
[55] = test system: MDA-MB-231 breast
[56] = test system: NCI/ADR-RES ovarian
[57] = test system: BT-549 breast
[58] = test system: HS 578T breast
[59] = test system: DU-145 prostate
[60] = test system: RXF 393 renal
[61] = test system: PC-3 prostate
[62] = test system: MDA-MB-435
[63] = test system: T-47D breast

SMILES: CCCC(=O)[O-].N.N.N.N.N.[Co+3].[O-][Cl+3]([O-])([O-])[O-]
- TGI [1]: > 100 µM
- TGI [2]: > 100 µM
- TGI [3]: > 100 µM
- TGI [4]: > 100 µM
- TGI [5]: > 100 µM
- TGI [6]: > 100 µM
- TGI [7]: > 100 µM
- TGI [8]: > 100 µM
- TGI [9]: > 100 µM
- TGI [10]: > 100 µM
- TGI [11]: > 100 µM
- TGI [12]: > 100 µM
- TGI [13]: > 100 µM
- TGI [14]: > 100 µM
- TGI [15]: > 100 µM
- TGI [16]: > 100 µM
- TGI [17]: > 100 µM
- TGI [18]: > 100 µM
- TGI [19]: > 100 µM
- TGI [20]: > 100 µM
- TGI [21]: > 100 µM
- TGI [22]: > 100 µM
- TGI [23]: > 100 µM
- TGI [24]: > 100 µM
- TGI [25]: > 100 µM
- TGI [26]: > 100 µM
- TGI [27]: > 100 µM
- TGI [28]: > 100 µM
- TGI [29]: > 100 µM
- TGI [30]: > 100 µM
- TGI [31]: > 100 µM
- TGI [32]: > 100 µM
- GI50 [33]: > 100 µM
- TGI [33]: > 100 µM
- TGI [34]: > 100 µM
- TGI [35]: > 100 µM
- TGI [36]: > 100 µM
- GI50 [37]: > 100 µM
- TGI [37]: > 100 µM
- TGI [38]: > 100 µM
- GI50 [39]: > 100 µM
- TGI [39]: > 100 µM
- TGI [40]: > 100 µM
- TGI [41]: > 100 µM
- TGI [42]: > 100 µM
- TGI [43]: > 100 µM
- TGI [44]: > 100 µM
- TGI [45]: > 100 µM
- TGI [46]: > 100 µM
- TGI [47]: > 100 µM
- GI50 [48]: > 100 µM
- TGI [48]: > 100 µM

SMILES: Cc1cn(S(=O)(=O)c2ccccc2)c2c(OCc3ccccc3)cc(NS(C)(=O)=O)cc12
- TGI [1]: > 100 µM
- TGI [2]: > 100 µM
- TGI [3]: > 75.9 µM
- TGI [4]: > 100 µM
- TGI [5]: 63.5 µM
- TGI [6]: > 100 µM
- TGI [7]: > 100 µM
- TGI [8]: 43.7 µM
- TGI [9]: > 100 µM
- TGI [10]: > 100 µM
- TGI [11]: > 63.7 µM
- TGI [49]: > 100 µM
- TGI [12]: > 100 µM
- TGI [13]: > 100 µM
- TGI [14]: > 70.2 µM
- TGI [15]: > 89.2 µM
- TGI [16]: 77.2 µM
- TGI [17]: > 100 µM
- TGI [18]: > 44.6 µM
- TGI [50]: > 100 µM
- TGI [51]: > 20.6 µM
- TGI [19]: > 100 µM
- TGI [20]: > 100 µM
- TGI [21]: > 100 µM
- TGI [22]: > 78 µM
- TGI [23]: > 100 µM
- TGI [52]: > 100 µM
- TGI [24]: > 75.7 µM
- TGI [25]: > 100 µM
- TGI [53]: 27.3 µM
- TGI [26]: > 100 µM
- TGI [27]: > 100 µM
- TGI [54]: > 94.4 µM
- TGI [28]: > 77.9 µM
- TGI [29]: > 100 µM
- TGI [55]: 32.8 µM
- TGI [56]: > 100 µM
- TGI [30]: 17.2 µM
- TGI [31]: > 100 µM
- TGI [32]: > 100 µM
- TGI [57]: > 100 µM
- TGI [34]: 50.3 µM
- TGI [35]: > 100 µM
- TGI [58]: > 100 µM
- TGI [36]: > 100 µM
- TGI [38]: > 100 µM
- TGI [59]: > 100 µM
- TGI [60]: > 100 µM
- TGI [40]: > 100 µM
- TGI [41]: > 65.7 µM
- TGI [42]: > 100 µM
- TGI [43]: 16.6 µM
- TGI [44]: > 89.8 µM
- TGI [45]: > 100 µM
- TGI [61]: 29 µM
- TGI [46]: > 24.8 µM
- TGI [62]: > 100 µM
- TGI [47]: > 100 µM
- TGI [63]: 39.4 µM

From PubChem BioAssay (NCI)
